Columns and labels:
ectopic E-MSCs = assay: Endothelial differentiation (CD31) of ectopic E-MSCs in co-culture with HUVECs; type: cell-based, human; details: ectopic E-MSCs, 100 nM, 24-h treatment, 48 h co-culture with HUVECs
Protocol: FIG. 5: Quinagolide effect on EMSCs endothelial differentiation. A. FACS gating-strategy for the analysis of CD31^+ EMSCs after direct 48 h co-culture with HUVECs. EMSCs are gated as GFP negative population, and CD31 expression is evaluated on the described gated EMSCs after 48 h co-culture with HUVECs as percentage of CD31 APC positive events. B, C and D: Representative flow cytometry micrographs and quantification, expressed as percentage of variation respect to control co-culture, of the effect of 24 h treatment of EMSCs with 25 μM cabergoline, 1 μM sorafenib, 1 μM cabozantinib (B), 100 nM quinagolide (C) and the combination of 5 μM spiperone and 100 nM quinagolide (D) on EMSCs CD31 expression after 48 h of co-culture with HUVECs. Data are represented as mean±SD of at least three independent experiments, performed on different ectopic EMSC lines, and normalized to untreated co-culture. One-way ANova was performed: *=p<0.05 and ***=p<0.001 vs control.
(BSA)-Phosphate Buffered Saline (PBS) (Sigma). For each staining, 100,000 cells were incubated for 20 minutes at 4° C. with FITC, APC or PE-conjugated antibodies against: CD29, CD44, CD73, CD90 (BD Bioscences, Franklin Lakes, NJ, USA); CD31, CD34, CD105, CD140b, CD146, TEK receptor tyrosine kinase (Tie2), Sushi domain-containing protein 2 (SUSD2) (Miltenyi Biotech, Bergisch Gladbach, Germany); CD45 (AbD Serotec, Raleigh, NC, USA), or epithelial cell adhesion molecule (EPCAM) (BioLegend, San Diego, CA, USA). Labelled cells were washed by centrifugation and final pellet was resuspended in 200 μl of 0.1% BSA-PBS before cytofluorimetric analysis. Isotype (Miltenyi Biotec) was used as negative control.
Quinagolide powder (provided by Ferring Pharmaceuticals) was stored at 4° C. and resuspended in dimethylsulphoxide (DMSO) to a stock solution of 1 mM immediately before use. Spiperone powder (Sigma-Aldrich) was resuspended in water to a stock concentration of 1 mM and stored at −20° C. Cabergoline powder (Sigma-Aldrich) was dissolved in DMSO to a stock concentration of 25 mM and stored at −20° C. Sorafenib and cabozantinib (Sigma-Aldrich) were resuspended in DMSO to a final concentration of 10 mM and according to the manufacturer's instructions, and stored at −20° C. and −80° C., respectively. Quinagolide, spiperone and cabergoline were diluted 1:100 (final concentration 100 nM), 1:1000 (final concentration 5 μM) and 1:1000 (final concentration 25 μM) respectively. Quinagolide, cabergoline, sorafenib and cabozantinib and were administered for 24 hours during co-culture experiments, while spiperone was added to culture medium 1 h before quinagolide treatment. For invasion assays, E-MSCs were treated with spiperone 1 h before the cell detachment and quinagolide was added only when cells were plated on Matrigel. […]

ectopic EMSCs = assay: BrdU cell proliferation assay on E-MSCs; type: cell-based, human; details: different concentrations, after 24 hours
Protocol: FIG. 3: Quinagolide effect on EMSCs apoptosis and proliferation. A: Quinagolide concentration-response curve on ectopic EMSCs in both apoptosis (N=1) and proliferation (N=2) assays. B: Effect of two selected quinagolide doses (10^−5 and 10^−7M) on HUVECs (N=1) and ectopic E-MSCs (N=3) apoptosis and proliferation assays (N=2). Data are represented as mean±SD of the indicated number of experiments and normalized to untreated cells (Control). Cells were plated in growth medium at a concentration of 2,500 HUVECs/well and 3,000 E-MSCs/well in a 96-multiwell plate. The day after quinagolide was added to the growth medium at different concentrations after 24 hours. Deoxyribonucleic acid synthesis was detected as incorporation of 5-bromo-2-deoxyuridine (BrdU) into the cellular DNA after 48 hours from cell plaiting, using an enzyme-linked assay kit (Chemicon). Untreated cells were used as control. Data are expressed as the mean±standard deviation (SD) of the media of absorbance of at least three different experiments and normalized to control.

[1] = system: D2 mRNA expression in ectopic EMSCs; assay: Real Time PCR of D2 mRNA expression after quinagolide treatment; type: cell-based, human; details: ectopic lines, 48 h of 100 nM quinagolide, vs untreated
Text: FIG. 2: Effect of quinagolide on D2 expression in eutopic and ectopic EMSCs. A: Western blot analysis showing the presence of D2 in […] different passages, and in sorted SUSD2^+ E-MSCs. B: Real Time PCR analysis showing the relative quantification (RQ) of D2 mRNA expression by eutopic and ectopic EMSCs. Data are represented as mean±SD of three different eutopic or ectopic (ovarian and peritoneal) lines and normalized to GAPDH and to eutopic […]: Real Time PCR analysis showing D2 mRNA expression after 48 h of 100 nM quinagolide treatment (Q100) by eutopic and ectopic EMSCs. Data are represented as mean±SD of three different eutopic or ectopic (ovarian and peritoneal) lines and normalized to GAPDH and to untreated […] was performed: *=P<0.05 vs CTL. Trizol Reagent (Ambion) was used to isolate total RNA of different cell preparations, according to the manufacturer's protocol. RNA was then quantified spectrophotometrically using Nanodrop ND-1000. Quantitative real-time PCR was performed for gene expression analysis. Briefly, using the HighCapacity cDNA Reverse Transcription Kit (Applied Biosystems), first-strand cDNA was produced from 200 ng of total RNA. […] Fold change expression respect to control was calculated for all samples.

endometriotic lesions = details: patients with severe endometriosis and hyperprolactinemia (Gomez et al, 2011); cited from earlier work

Q: For CCCN1C[C@@H](NS(=O)(=O)N(CC)CC)C[C@@H]2Cc3c(O)cccc3C[C@H]21 [quinagolide, N,N-diethyl-N′-[(3S,4aS,10aR)-6-hydroxy-1-propyl-1,2,3,4,4a,5,10,10a-octahydrobenzo[g]quinolin-3-yl]sulfamide], which “percentage of CD31 expressing E-MSCs after co-culture” value (ectopic E-MSCs) is on record?
A: significantly reduced

Q: What about the “proliferation of E-MSCs (BrdU)” value (ectopic EMSCs) of the same compound?
A: did not affect proliferation

Q: And the “D2 mRNA expression” value [1]?
A: reduced

Q: And the “size of endometriotic lesions” value (endometriotic lesions)?
A: reduced the size
